Source: patent US10543254B2, “Composition containing neuropeptide Y for inhibiting side effects of anticancer agents” (KYUNGPOOK NATIONAL UNIVERSITY INDUSTRY-ACADEMIC COOPERATION …, priority 2014, dated 2020)

Key:
[1] = test system: cisplatin-induced bone marrow injury; assay: Bone marrow transplantation after lethal irradiation in cisplatin-treated mice with or without NPY: survival and bone marrow recovery; assay type: in vivo
Protocol: (§1) Cisplatin (Enzo; 10 mg per kg body weight once per week) was used to induce SNS injury. Mice received i.p. injections of cisplatin for 7 weeks as described. The mice were euthanized after 2 weeks after the last injection of cisplatin (for full bone marrow recovery).
(§2) To assess neuroprotection from cisplatin, mice were injected i.p. with NPY (Bachem, H-6375) daily during the 7-week cisplatin treatment period.
(§3) The mice were lethally irradiated (10 Gy, two split doses) and injected with 1×10^6 BM from CD45.1^+ (BoyJ) mice. After 4 weeks, the mice were sacrificed, and bone marrow and blood were obtained for analysis.
(§4) Next, to evaluate further whether NPY treatment prevents cisplatin-induced mouse death and injury of BM, bone marrow mononuclear cells (BMNCs) were transplanted into cisplatin-treated mice with or without NPY treatment after lethal irradiation. FIG. 2H illustrates an experimental design for verifying whether NPY protects a Th^+ fiber from cisplatin-induced bone marrow injury and whether to accelerate posttransplant bone marrow recovery.
FIG. 2I illustrates a survival result of mice of each group (n=10-15 mice per group).
FIG. 2J is a diagram illustrating the number of BMNCs (left side), a percentage of LSK cells (middle), and LT-HSCs (right side) in BM of WT mice treated with PBS, cisplatin or NPY, which are evaluated after 4 weeks after transplanting bone marrow (n=5-6 mice per group).
FIG. 2K illustrates a percentage of nestin-positive and CD31^+ endothelial cells in the femur of each group.

[2] = test system: cisplatin-induced neuropathy; assay: Hot-plate (heated-pad) test of sensory neuropathy after seven cycles of cisplatin with or without NPY; assay type: in vivo, mice
Protocol: as §1, §2
For measuring effects of different treatments on sensory responses, a hot-plate test was performed.
A hot plate (Leica) was maintained at 50° C. and each mouse was positioned on the end of the heated surface, first nociception, that is, a time until jumping or paw licking was measured. A cut-off time was set as 60 seconds. For the measurement, the heated surface was cleaned with a detergent and ethanol and a temperature was maintained at 50° C.
Next, control, Lyz2-cre; Y1^fl/fl, or Col1a1-cre; Y1^fl/fl mice were treated with seven cycles of cisplatin for the induction of neuropathy. In some animals, NPY was administered during cisplatin chemotherapy. […]
FIG. 2B illustrates a quantitative analysis result of sympathetic neuropathy (after 2 weeks after the last cisplatin injection) in a control group, Lyz2-cre; Y1^fl/fl or Col1a1-cre; Y1^fl/fl mice treated with cisplatin alone or cisplatin and NPY (n=6-10 mice per group, i.p). […]

[3] = test system: cisplatin-induced bone marrow injury; assay: Complete blood count 4 weeks after bone marrow transplantation; assay type: in vivo, mice; conditions: for HCT (hematocrit) / Hgb (hemoglobin) / MCH (mean corpuscular hemoglobin) / MCHC (mean corpuscular hemoglobin concentration) / MCV (mean cell volume) / MPV (mean platelet volume) / PLT (platelets) / RBC (red blood cell) / RDW-CV (red cell volume distribution width-coefficient of variation) / WBC (white blood cell): complete blood count 4 weeks after transplantation, groups PBS or cisplatin / PBS or NPY
Description: as §3, §4
Table 1 is a diagram illustrating an increase in blood cell recovery in NPY-treated mice after cisplatin treatment. A complete blood count was performed by targeting PBS or cisplatin-treated mice after 4 weeks after transplantation and after NPY treatment.

[4] = test system: cisplatin-induced sympathetic nervous system (SNS) injury; assay: Quantification of Th+ fibers and nestin-positive and CD31+ endothelial cells in bone marrow after cisplatin with or without NPY; assay type: in vivo, mice
Protocol: as §1, §2
Next, control, Lyz2-cre; Y1^fl/fl, or Col1a1-cre; Y1^fl/fl mice were treated with seven cycles of cisplatin for the induction of neuropathy. In some animals, NPY was administered during cisplatin chemotherapy. FIG. 2A is an experimental design for determining an effect of the Y1 receptor in the macrophages or osteoblasts in cisplatin-induced neuropathy, after NPY treatment.
Further, FIG. 2E is a diagram illustrating a quantitative analysis of a Th^+ fiber in BM of each group (n=5-6 mice per group).
FIG. 2F is a diagram illustrating the number (n=5-6 mice per group) of nestin-positive and CD31^+ endothelial cells per femoral region of each group.

[5] = NPY i.p. daily during 7-week cisplatin treatment, cisplatin-treated control or Col1a1-cre, Y1fl/fl mice

Molecule	numbers of nestin-positive and CD31+ endothelial cells in the femur ([1]; cisplatin-treated mice after transplantation)	bone marrow function after transplantation (BMNCs, LSK cells, LT-HSCs) ([1]; cisplatin-treated mice, 4 weeks after transplanting bone marrow)	mouse survival ([1]; cisplatin-treated mice, lethal irradiation and BMNC transplantation)	sensory neuropathy (hot-plate latency) [2, 5]	blood cell recovery ([3]; NPY-treated mice after cisplatin treatment, 4 weeks after transplantation)	HCT (hematocrit) [3] [%]	Hgb (hemoglobin) [3] [g/dL]	MCH (mean corpuscular hemoglobin) [3] [pg]	MCHC (mean corpuscular hemoglobin concentration) [3] [g/dL]	MCV (mean cell volume) [3] [fL]	MPV (mean platelet volume) [3] [fL]	PLT (platelets) [3] [m/mm^3]	RBC (red blood cell) [3] [m/mm^3]	RDW-CV (red cell volume distribution width-coefficient of variation) [3] [%]	WBC (white blood cell) [3] [m/mm^3]	number of nestin-positive and CD31+ endothelial cells [4, 5]	reduced density of Th+ fibers in BM [4, 5]	protection of Th+ fibers and perivascular niche cells ([4]; cisplatin-treated Lyz2-cre, Y1fl/fl mice (no Y1 receptor in macrophages))	sensory neuropathy (hot-plate latency) ([2]; 2 weeks after the last injection, cisplatin 10 mg per kg i.p. once per week for 7 weeks)
neuropeptide Y [NPY]	restored	restored	enhanced	improved	increase	49.5 ± 9.3	14.4 ± 0.9	17.35 ± 1.4	33.2 ± 7.6	58.2 ± 8.8	11.4 ± 2.8	219.3 ± 65.8	8.4 ± 0.4	19.4 ± 0.8	5.3 ± 0.4	improved	improved	did not show NPY-mediated protection	–
N.N.[Cl][Pt][Cl] [Cisplatin, cisplatin, reference compound]	–	–	–	–	–	53.5 ± 6.1	12.8 ± 0.8	17.1 ± 0.8	27.0 ± 4.2	66.1 ± 5.2	11.3 ± 2.3	165.7 ± 42.4	6.1 ± 0.8	19.4 ± 0.3	2.2 ± 0.4	–	–	–	had sensory neuropathy
